Data published in patent US6423693B1, “Growth hormone releasing hormone expression system and methods of use, including use in animals” (Baylor College of Medicine, priority 1997, dated 2002).
No end group written: not given here.

Experiments:
[1] = tested on: primary pig anterior pituitary cells; assay: GH release from primary pig anterior pituitary culture challenged with conditioned media; format: cell-based; conditions: 24 h stimulation at 37 C; media from 1 million primary pig myoblasts or media mixed with 10 ng synthetic peptide
Description: Primary pig myoblasts culture was obtained as described (Doumit & Merkel, 1992, Tissue & Cell 24:253-262). The cells were plated at a density of 1 million cells/100 mm plate and maintained in growth media for 2-3 days. The cells were passed for 2 times prior to transfection. The transfection and differentiation was made in the same conditions as for the primary chicken myoblast culture. The media and cells were harvested for analysis 48, 72 and 96 h postdifferentiation in both cases. The efficiency of transfection estimated by β-galactosidase histochemistry on control plates was 10%.
One day before harvesting, cells were washed twice in HBSS and changed in MEM, 0.1% BSA. The collected media was conditioned by adding ¼ volumes of 1% triflouroacetic acid (TFA) and 0.001% phenylmethylsulfonylflouride (PMSF), frozen at −80° C., lyophilized, purified on C-18 Sep-Columns (Peninsula Laboratories, CA, USA), relyophilized and used in RIA or resuspended in media conditioned for primary pig anterior pituitary culture. […]
B. In vitro activity of pSK-GHRH. Since anterior pituitary is the natural target of GHRH stimulation, we determined the biological activity of secreted GHRH from the media of pSK-GHRH transfected primary pig myoblasts (FIG. 8). […]

[2] = cited from earlier work
[3] = tested on: GH release; conditions: synthetic molecules, Ling et al 1984; cited from earlier work

hGHRH (1-44)NH2: synthetic amidated human growth hormone releasing hormone (1-44) (YADAIFTNSYRKVLGQLSARKLLQDIMSRQQGESNQERGARARL-NH2; UniProt P01286 32-75, looked up)
GH release [1]: 115 ± 3.2 ng/mL

hGHRH(1-40)OH: Human 1-40 OH growth hormone releasing hormone (YADAIFTNSYRKVLGQLSARKLLQDIMSRQQGESNQERGA-OH)
potency in vivo relative to hGHRH(1-44)NH2 [2]: same potency in vivo as hGHRH(1-44)NH2

hGHRH(1-44)OH: non-amidated human GHRH (1-44), Tyr1 to Leu44; the molecule expressed by pSK-GHRH (YADAIFTNSYRKVLGQLSARKLLQDIMSRQQGESNQERGARARL-OH; UniProt P01286 32-75, looked up)
less effective in releasing GH than the (1-44) amidated form [3]: 30%
